Molecules are shown by their SMILES. Read-outs that look alike come from different tables or passages of the source.

We go through 5 molecules from patent US10168342B2, “Lipid probes and uses thereof” (THE SCRIPPS RESEARCH INSTITUTE, priority 2015, dated 2019).

Assay [1] has as its target AEA-DA lipid probe targets in Neuro2a cells (Mus musculus, UniProt Q80YV4). Particulars: competitor 200 μM.
Assay [2] addresses T1, lipid-binding proteins in Neuro2a cells (Mus musculus, UniProt Q8BIJ6).
T1 construct: endogenous in cells; host or cells: Neuro2a
Briefly: SILAC MS mapping of lipid probe targets (probe-versus-No UV, probe-versus-probe) in Neuro2a cells. The class given is cell-based. The settings on record: protein Iars2, AEA-DA probe, No UV control.

Assay [3] concerns the target AEA-DA lipid probe targets in Neuro2a cells (Mus musculus, UniProt Q9QXS1). Particulars: competitor 25 μM.
Assay [4] concerns the target AEA-DA lipid probe targets in A549 cells (Homo sapiens, UniProt O95470). Briefly: In situ competitive SILAC profiling with AEA-DA probe in A549 cells. The settings on record: competitor 25 μM.
Assay [5] concerns the target AEA-DA lipid probe targets in A549 cells (Homo sapiens, UniProt P21796). Described as above. Particulars: competitor 25 μM.
Assay [6] addresses AEA-DA lipid probe targets in A549 cells (Homo sapiens, UniProt P30519). The description is as above. The settings on record: competitor 25 μM.
Assay [7] has as its target AEA-DA lipid probe targets in A549 cells (Homo sapiens, UniProt P45880). Described as above. The settings on record: competitor 25 μM.
In assay [8] the target is AEA-DA lipid probe targets in A549 cells (Homo sapiens, UniProt P67812). The description is as above. The settings on record: competitor 25 μM.
The target in assay [9] is AEA-DA lipid probe targets in A549 cells (Homo sapiens, UniProt Q14534). The assay is described as above. Particulars: competitor 25 μM.
Assay [10] addresses AEA-DA lipid probe targets in A549 cells (Homo sapiens, UniProt Q53GQ0). The description is as above. Particulars: competitor 25 μM.
The target of assay [11] is AEA-DA lipid probe targets in A549 cells (Homo sapiens, UniProt Q86XL3). The description is as above. Particulars: competitor 25 μM.
The subject of assay [12] is AEA-DA lipid probe targets in A549 cells. Described as above. The settings on record: competitor 25 μM.
The target in assay [13] is AEA-DA lipid probe targets in Neuro2a cells (Mus musculus, UniProt P21619). The settings on record: protein Lmnb2; Neuro2a cells; competitor 50 μM.
The target of assay [14] is T2, AEA-DA lipid probe targets in Neuro2a cells (Mus musculus, UniProt P45878).
T2 sequence (P45878 23-140): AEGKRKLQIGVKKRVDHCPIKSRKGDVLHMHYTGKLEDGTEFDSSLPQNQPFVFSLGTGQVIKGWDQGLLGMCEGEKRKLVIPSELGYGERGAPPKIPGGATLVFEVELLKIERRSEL
Particulars: protein Fkbp2, Neuro2a cells.

Another assay has as its target T3, recombinant TMEM97 (Homo sapiens, UniProt Q5BJF2).
T3 construct: Full-length cDNAs encoding for the each protein of interest were subcloned into pcDNA3.1 myc-His A; expressed in transfected cells; host or cells: HEK293T
The assay can be described thus: In situ gel-based competition of arachidonoyl probe labeling of recombinant TMEM97 in HEK293T cells. It counts as cell-based. Particulars: TMEM97-transfected HEK293T cells, probe 5 μM, competitor 25 μM. The procedure: Proteomes were diluted to 1.0 mg/mL (total protein concentration) and 50 μL of each proteome was transferred to separate wells in a 96-well plate.
Full-length cDNAs encoding for the each protein of interest were subcloned into pcDNA3.1 myc-His A (Invitrogen) or used directly for transfections if available in a eukaryotic expression vector. HEK293T cells were grown to ˜70% confluence under standard growth conditions before adding the appropriate cDNA [control cells (“mock”) received an equal amount of empty pcDNA3.1 myc-His A vector] and FuGENE 6 or X-tremeGENE HP (Roche) transfection reagent according to the manufacturer's instructions. Cells were incubated for 36-48 hours before labeling in situ or harvesting for in vitro experiments.

Sequence of AEA-DA lipid probe targets in A549 cells (Homo sapiens, UniProt O95470) (O95470 whole entry): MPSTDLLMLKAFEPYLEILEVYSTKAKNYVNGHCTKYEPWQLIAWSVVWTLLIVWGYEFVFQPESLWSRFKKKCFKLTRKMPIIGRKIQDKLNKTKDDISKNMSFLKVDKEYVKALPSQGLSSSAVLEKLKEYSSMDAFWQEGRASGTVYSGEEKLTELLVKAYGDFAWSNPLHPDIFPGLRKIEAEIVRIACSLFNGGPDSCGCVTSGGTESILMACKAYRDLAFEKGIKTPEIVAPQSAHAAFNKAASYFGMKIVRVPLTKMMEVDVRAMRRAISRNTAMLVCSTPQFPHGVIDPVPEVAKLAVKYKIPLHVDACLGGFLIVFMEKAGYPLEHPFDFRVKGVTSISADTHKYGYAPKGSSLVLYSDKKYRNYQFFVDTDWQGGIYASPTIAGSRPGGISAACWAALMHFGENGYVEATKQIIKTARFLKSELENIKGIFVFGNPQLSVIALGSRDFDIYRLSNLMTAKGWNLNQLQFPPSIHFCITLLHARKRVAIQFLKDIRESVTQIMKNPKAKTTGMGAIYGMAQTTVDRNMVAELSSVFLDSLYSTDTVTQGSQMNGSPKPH
T3 sequence (Q5BJF2 whole entry, species assumed): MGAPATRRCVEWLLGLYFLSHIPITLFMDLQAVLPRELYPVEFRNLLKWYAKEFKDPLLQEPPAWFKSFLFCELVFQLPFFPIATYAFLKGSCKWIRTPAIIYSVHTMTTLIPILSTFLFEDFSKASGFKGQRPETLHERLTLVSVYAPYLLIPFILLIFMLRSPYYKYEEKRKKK
Sequence of AEA-DA lipid probe targets in Neuro2a cells (Mus musculus, UniProt Q80YV4) (Q80YV4 whole entry): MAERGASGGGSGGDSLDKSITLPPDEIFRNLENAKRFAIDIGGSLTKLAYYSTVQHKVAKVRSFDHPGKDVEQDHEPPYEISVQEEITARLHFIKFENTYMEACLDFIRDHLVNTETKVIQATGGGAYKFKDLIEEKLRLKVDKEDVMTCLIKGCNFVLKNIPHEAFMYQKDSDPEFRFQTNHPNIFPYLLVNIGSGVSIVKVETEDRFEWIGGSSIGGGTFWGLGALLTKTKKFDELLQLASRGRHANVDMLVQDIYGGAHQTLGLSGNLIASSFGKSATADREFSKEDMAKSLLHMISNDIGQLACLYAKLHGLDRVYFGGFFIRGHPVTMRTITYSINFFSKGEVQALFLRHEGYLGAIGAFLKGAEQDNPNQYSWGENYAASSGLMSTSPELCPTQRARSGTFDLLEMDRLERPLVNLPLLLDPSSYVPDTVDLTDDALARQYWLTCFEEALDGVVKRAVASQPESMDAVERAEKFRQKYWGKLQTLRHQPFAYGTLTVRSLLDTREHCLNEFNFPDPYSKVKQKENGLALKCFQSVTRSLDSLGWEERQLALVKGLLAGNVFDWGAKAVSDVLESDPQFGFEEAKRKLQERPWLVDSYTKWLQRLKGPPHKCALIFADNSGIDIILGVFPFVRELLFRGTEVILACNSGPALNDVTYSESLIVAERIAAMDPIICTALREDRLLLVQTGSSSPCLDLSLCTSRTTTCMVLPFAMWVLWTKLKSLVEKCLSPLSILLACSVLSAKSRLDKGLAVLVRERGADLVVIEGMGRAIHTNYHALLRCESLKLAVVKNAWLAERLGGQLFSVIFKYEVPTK
Sequence of AEA-DA lipid probe targets in A549 cells (Homo sapiens, UniProt P45880) (P45880 whole entry): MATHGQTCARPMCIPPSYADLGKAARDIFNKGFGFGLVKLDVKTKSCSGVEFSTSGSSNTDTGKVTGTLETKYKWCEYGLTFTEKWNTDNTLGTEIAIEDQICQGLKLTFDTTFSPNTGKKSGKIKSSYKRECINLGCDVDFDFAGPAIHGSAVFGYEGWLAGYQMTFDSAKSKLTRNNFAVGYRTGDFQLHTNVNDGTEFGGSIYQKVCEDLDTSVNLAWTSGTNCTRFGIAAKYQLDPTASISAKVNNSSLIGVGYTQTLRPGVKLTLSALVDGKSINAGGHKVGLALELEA
Sequence of AEA-DA lipid probe targets in A549 cells (Homo sapiens, UniProt P21796) (P21796 whole entry): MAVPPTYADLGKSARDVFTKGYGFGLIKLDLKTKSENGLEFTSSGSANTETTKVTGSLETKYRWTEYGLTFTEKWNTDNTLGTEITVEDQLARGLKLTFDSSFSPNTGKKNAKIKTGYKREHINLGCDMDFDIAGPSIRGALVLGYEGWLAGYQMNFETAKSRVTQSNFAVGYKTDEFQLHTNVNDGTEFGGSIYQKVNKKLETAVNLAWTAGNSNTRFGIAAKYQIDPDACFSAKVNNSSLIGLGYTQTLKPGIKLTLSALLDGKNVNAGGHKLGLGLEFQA
Sequence of AEA-DA lipid probe targets in A549 cells (Homo sapiens, UniProt Q86XL3) (Q86XL3 whole entry): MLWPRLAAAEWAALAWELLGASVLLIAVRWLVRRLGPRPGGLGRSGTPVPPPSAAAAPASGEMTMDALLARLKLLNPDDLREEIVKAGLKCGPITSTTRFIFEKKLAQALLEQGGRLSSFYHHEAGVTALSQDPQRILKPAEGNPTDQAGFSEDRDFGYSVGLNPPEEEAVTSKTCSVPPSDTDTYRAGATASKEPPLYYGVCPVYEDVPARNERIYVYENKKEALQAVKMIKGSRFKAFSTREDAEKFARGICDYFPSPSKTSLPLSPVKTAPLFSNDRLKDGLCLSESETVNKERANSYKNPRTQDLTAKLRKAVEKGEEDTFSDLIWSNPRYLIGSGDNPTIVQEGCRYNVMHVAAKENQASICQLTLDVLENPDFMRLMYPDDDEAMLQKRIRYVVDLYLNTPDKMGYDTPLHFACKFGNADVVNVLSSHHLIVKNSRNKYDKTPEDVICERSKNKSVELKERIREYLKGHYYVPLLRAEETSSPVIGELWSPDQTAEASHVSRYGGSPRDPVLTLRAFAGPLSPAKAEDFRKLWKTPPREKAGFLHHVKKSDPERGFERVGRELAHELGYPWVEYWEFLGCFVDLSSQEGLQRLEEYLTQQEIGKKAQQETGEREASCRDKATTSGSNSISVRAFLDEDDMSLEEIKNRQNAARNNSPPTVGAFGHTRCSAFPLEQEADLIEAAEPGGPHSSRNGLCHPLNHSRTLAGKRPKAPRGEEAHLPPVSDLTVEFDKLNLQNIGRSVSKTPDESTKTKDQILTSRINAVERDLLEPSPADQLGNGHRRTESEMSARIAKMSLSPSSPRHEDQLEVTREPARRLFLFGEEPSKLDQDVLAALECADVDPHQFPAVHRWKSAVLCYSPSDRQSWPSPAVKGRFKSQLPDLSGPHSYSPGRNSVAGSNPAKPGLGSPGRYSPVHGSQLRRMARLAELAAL
T1 sequence (Q8BIJ6 49-1012): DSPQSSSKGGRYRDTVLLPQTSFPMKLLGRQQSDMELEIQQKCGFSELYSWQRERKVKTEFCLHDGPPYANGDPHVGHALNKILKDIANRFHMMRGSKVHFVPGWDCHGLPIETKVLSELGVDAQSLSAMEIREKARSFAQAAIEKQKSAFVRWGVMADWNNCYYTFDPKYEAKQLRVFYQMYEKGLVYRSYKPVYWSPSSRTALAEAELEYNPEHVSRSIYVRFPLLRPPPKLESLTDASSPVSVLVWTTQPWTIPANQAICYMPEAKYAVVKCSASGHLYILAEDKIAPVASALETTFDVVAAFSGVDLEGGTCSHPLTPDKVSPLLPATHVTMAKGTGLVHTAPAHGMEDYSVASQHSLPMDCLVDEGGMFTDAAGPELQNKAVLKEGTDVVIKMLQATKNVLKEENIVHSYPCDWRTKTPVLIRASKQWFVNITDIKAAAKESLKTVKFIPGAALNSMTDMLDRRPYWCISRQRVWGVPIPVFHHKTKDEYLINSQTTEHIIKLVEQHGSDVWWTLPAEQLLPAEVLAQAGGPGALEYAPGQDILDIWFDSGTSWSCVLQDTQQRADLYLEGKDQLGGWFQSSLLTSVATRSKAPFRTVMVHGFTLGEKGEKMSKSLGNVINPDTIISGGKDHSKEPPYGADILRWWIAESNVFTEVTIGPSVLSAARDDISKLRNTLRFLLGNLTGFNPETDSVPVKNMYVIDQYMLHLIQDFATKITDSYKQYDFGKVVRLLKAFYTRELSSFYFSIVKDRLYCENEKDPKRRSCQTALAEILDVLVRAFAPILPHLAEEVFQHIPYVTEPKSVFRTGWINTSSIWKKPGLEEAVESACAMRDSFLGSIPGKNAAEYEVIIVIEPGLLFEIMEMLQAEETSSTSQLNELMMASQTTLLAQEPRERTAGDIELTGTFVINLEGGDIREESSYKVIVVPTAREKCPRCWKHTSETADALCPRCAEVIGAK
Sequence of AEA-DA lipid probe targets in A549 cells (Homo sapiens, UniProt Q14534) (Q14534 whole entry): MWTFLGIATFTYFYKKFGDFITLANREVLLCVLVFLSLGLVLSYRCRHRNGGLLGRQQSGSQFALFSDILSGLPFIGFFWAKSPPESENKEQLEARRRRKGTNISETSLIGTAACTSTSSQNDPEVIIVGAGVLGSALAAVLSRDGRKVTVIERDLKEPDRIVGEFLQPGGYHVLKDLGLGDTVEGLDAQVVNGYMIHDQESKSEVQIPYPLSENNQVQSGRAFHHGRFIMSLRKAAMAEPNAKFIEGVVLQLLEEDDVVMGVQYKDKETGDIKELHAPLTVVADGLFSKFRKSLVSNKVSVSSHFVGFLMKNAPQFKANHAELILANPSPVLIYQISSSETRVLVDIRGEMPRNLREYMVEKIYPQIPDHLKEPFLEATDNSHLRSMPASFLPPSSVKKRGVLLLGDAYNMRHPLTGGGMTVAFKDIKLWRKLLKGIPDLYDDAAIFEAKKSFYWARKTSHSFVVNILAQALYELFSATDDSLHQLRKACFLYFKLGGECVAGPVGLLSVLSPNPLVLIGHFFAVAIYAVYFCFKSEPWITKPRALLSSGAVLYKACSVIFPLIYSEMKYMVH
Sequence of AEA-DA lipid probe targets in A549 cells (Homo sapiens, UniProt Q53GQ0) (Q53GQ0 whole entry): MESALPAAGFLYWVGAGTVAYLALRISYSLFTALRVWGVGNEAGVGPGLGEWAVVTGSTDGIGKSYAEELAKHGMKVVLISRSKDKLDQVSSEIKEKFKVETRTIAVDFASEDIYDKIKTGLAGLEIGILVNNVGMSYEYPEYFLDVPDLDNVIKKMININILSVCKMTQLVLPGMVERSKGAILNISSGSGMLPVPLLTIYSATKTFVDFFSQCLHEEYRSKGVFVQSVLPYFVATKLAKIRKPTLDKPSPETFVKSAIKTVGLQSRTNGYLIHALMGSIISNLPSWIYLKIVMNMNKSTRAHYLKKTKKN

In the case of `CCCCC/C=C\C/C=C\C/C=C\C/C=C\CCCC(=O)NCCO` [AEA, anandamide, reference compound], the “SILAC ratio Pank4” value in assay [1] was determined as 1.6.

For the molecule `C#CCCCC1(CC/C=C\C/C=C\C/C=C\CCCC(=O)NCCO)N=N1` [AEA-DA, (5Z,8Z,11Z)-N-(2-hydroxyethyl)-14-(3-(pent-4-yn-1-yl)-3H-diazirin-3-yl)tetradeca-5,8,11-trienamide], in assay [2], the “SILAC ratio, AEA-DA probe versus No UV” value is 20.0.

As to `O=C(/C=C/c1cccnc1)NCCCCC1CCN(C(=O)c2ccccc2)CC1` [FK-866, reference compound], the “SILAC ratio, Plec” value in assay [3] amounted to 2.1. Also, in assay [4], the “SILAC ratio, SGPL1 (O95470)” value was 0.8. For the same molecule, the “SILAC ratio, VDAC1 (P21796)” value in assay [5] amounted to 0.8. Also, in assay [6], the “SILAC ratio, HMOX2 (P30519)” value stood at 0.7. The “SILAC ratio, VDAC2 (P45880)” value in assay [7] is reported as 0.9. In [8], the “SILAC ratio, SEC11A (P67812)” value came out at 0.6. Also, in assay [9], the “SILAC ratio, SQLE (Q14534)” value was 0.7. Besides, the “SILAC ratio, HSD17B12 (Q53GQ0)” value in [10] stood at 0.8. In addition, the “SILAC ratio, ANKLE2 (Q86XL3)” value in [11] is recorded as 0.6. Also, in assay [12], the “SILAC ratio, PGRMC2 (Q80UU9)” value is 0.7; the “SILAC ratio, PSAP (P07602)” value was 0.7; the “SILAC ratio, TOMM22 (Q9CPQ3)” value is 0.6; the “SILAC ratio, UGT1A7 (Q9HAW7)” value worked out at 1.5.

Take `CN1CCN(C(=O)c2[nH]c3ccc([N+](=O)[O-])cc3c2-c2ccccc2)CC1` [MJN228, (4-Methylpiperazin-1-yl)(5-nitro-3-phenyl-1H-indol-2-yl)methanone]: the “SILAC ratio (AEA-DA competition)” value in [13] was 1.9; in [14] (competitor 10 μM), 1.1; in assay [14] (competitor 25 μM), 1.6; in [14] (competitor 100 μM), 1.1.

Regarding `C=CCN(C)CCCCCCOc1ccc(C(=O)c2ccc(Br)cc2)c(F)c1` [Ro 48-8071, reference compound], the “competition of arachidonoyl probe labeling of recombinant TMEM97” value at recombinant TMEM97 is reported as “competition was observed”.
